Test results as given in ChEMBL document CHEMBL2150849, “Sesquiterpenoids from the mangrove-derived endophytic fungus Diaporthe sp” (J Nat Prod, 2012).
The source made the active and inactive calls.

Key:
Format in all cases: functional, cell-based
A549 = assay: Cytotoxicity against human A549 cells at 20 uM by MTT assay
SGC-7901 = assay: Cytotoxicity against human SGC7901 cells at 20 uM by MTT assay
QGY7701 = assay: Cytotoxicity against human QGY7701 cells at 20 uM by MTT assay
MCF7 = assay: Cytotoxicity against human MCF7 cells at 20 uM by MTT assay

Measured: Activity

CC1(C)[C@@H](O)CC[C@]2(C)C3=C(CC[C@@H]12)C(=O)OC3
inactive: all assays above

CC1=C(CO)[C@@]2(C)CCCC(C)(C)[C@@H]2C[C@H]1O
inactive: all assays above

CC1(C)CCC[C@]2(C)[C@@H](C(=O)O)[C@](C)(O)CC[C@@H]12
inactive: all assays above

C[C@]1(CO)CCC[C@]2(C)[C@@H](CO)[C@](C)(O)CC[C@@H]12
inactive: all assays above

CC1(C)CC(=O)C[C@]2(C)[C@@H](CO)[C@](C)(O)CC[C@@H]12
inactive: all assays above

CC1=C(CO)[C@@]2(C)CC[C@H](O)C(C)(C)[C@@H]2CC1=O
inactive: all assays above

CC(C)(O)[C@]12CCC3=C(COC3=O)[C@@]1(C)CCC(=O)O2
inactive: all assays above

CC1(C)C(=O)CC[C@]2(C)[C@@H](CO)[C@](C)(O)CC[C@@]12O
inactive: all assays above

CC1=C(CO)[C@@]2(C)C[C@@H](O)CC(C)(C)[C@@H]2CC1=O
inactive: all assays above

CC1=C[C@@H]2C[C@H](C)C[C@H](C)[C@H]2[C@](C)(C(=O)CCO)[C@@H]1C(=O)O
inactive: all assays above

CC1=C(CO)[C@@]2(C)CCC[C@@](C)(CO)[C@@H]2CC1=O
inactive: all assays above
